Experiment [1] concerns MV4:11 human cancer cell lines. The experiment in a line: Anti-proliferative activity, CellTiter-Glo viability assay, 7 day protocol. The conditions noted are these: MV4:11 cells, 7 day incubation, read-out: GI50 on cellular proliferation of MV4:11 human cancer cell lines. The experiment is classed as cell-based. In outline: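 MV4:11 cells seeded at 3600 cells/ml and exposed to compounds for 7 days, 0.1% DMSO final. Viability measured by CellTiter-Glo luminescence. GI50 from three biological replicates, each in technical triplicate, given as mean ± S.E.M.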
In general terms: Cellular ATP, detected with luciferase, serves as a proxy for viable cell number.

For experiment [2], the target named is WDR5 (Homo sapiens (Human), UniProt P61964). The experiment in a line: TR-FRET binding assay (displacement of 10mer-Thr-FAM probe from WDR5). (Time-resolved FRET reads energy transfer from a long-lived donor to a nearby acceptor.)
[3] abbreviates: read-out: Ki for Inhibition of WDR5 by TR-FRET assay, TR-FRET, 10mer-Thr-FAM probe, WDR5-His tag 2 nM, pH 7.0.

Read-outs that look alike come from different tables or passages of the source. Bounds are passed on as bounds.

By Ki is commonly meant the dissociation constant of the complex between target and ligand, obtained from inhibition or displacement. Turning to `Cc1cc(CNC(=O)c2cc(Cn3ccn(C)c3=N)cc(OC(F)(F)F)c2)ccc1Cl` [Example 147, N-(4-Chloro-3-methylbenzyl)-3-((2-imino-3-methyl-2,3-dihydro-1H-imidazol-1-yl)methyl)-5-(trifluoromethoxy)benzamide], the GI50 in experiment [1] (Homo sapiens, MV4-11, 168 h) was found to be 840 nM. Moreover, the Ki in experiment [2] (setting [3]) was determined as 0.37 nM.
Taken in the same sequence, the figures for `Cc1cc([C@@H](NC(=O)c2cc(Cn3ccn(C)c3=N)cc(-c3ccc(F)cc3C(F)F)c2)C2CC2)ccc1F` [Example 154, (S)—N-(Cyclopropyl(4-fluoro-3-methylphenyl)methyl)-2′-(difluoromethyl)-4′-fluoro-5-((2-imino-3-methyl-2,3-dihydro-1H-imidazol-1-yl)methyl)-[1,1′-biphenyl]-3-carboxamide] were 120 nM and less than 0.1 nM.
Taken in the same sequence, the figures for `Cc1cc([C@@H](NC(=O)c2cc(Cn3ccn(C4CC4)c3=N)cc(-c3ccc(F)cc3OC(F)F)c2)C2CC2)ccc1F` [Example 156, (S)—N-(cyclopropyl(4-fluoro-3-methylphenyl)methyl)-5-((3-cyclopropyl-2-imino-2,3-dihydro-1H-imidazol-1-yl)methyl)-2′-(difluoromethoxy)-4′-fluoro-[1,1′-biphenyl]-3-carboxamide] were 470 nM and less than 0.1 nM.
For `Cn1cc(-c2cc(Cn3ccn(C)c3=N)cc(C(=O)N[C@H](c3ccc(Cl)c(Cl)c3)C3CC3)c2)c(C(F)(F)F)n1` [Example 157, (S)—N-(Cyclopropyl(3,4-dichlorophenyl)methyl)-3-((2-imino-3-methyl-2,3-dihydro-1H-imidazol-1-yl)methyl)-5-(1-methyl-3-(trifluoromethyl)-1H-pyrazol-4-yl)benzamide], in experiment [1], the GI50 was 100 nM. Also, the Ki in experiment [2] (setting [3]) was less than 0.1 nM.
Take `Cc1cc([C@@H](NC(=O)c2cc(Cn3ccn(C4CC4)c3=N)cc(-c3ccc(F)cc3C(F)F)c2)C2CC2)ccc1F` [Example 158, (S)—N-(Cyclopropyl(4-fluoro-3-methylphenyl)methyl)-5-((3-cyclopropyl-2-imino-2,3-dihydro-1H-imidazol-1-yl)methyl)-2′-(difluoromethyl)-4′-fluoro-[1,1′-biphenyl]-3-carboxamide]: the GI50 in experiment [1] (Homo sapiens, MV4-11, 168 h) was 170 nM. For the same compound, the Ki in experiment [2] (setting [3]) was less than 0.1 nM.
Regarding `Cn1cc(-c2cc(Cn3ccn(C4CC4)c3=N)cc(C(=O)N[C@H](c3ccc(Cl)c(Cl)c3)C3CC3)c2)c(C(F)(F)F)n1` [Example 159, (S)—N-(cyclopropyl(3,4-dichlorophenyl)methyl)-3-((3-cyclopropyl-2-imino-2,3-dihydro-1H-imidazol-1-yl)methyl)-5-(1-methyl-3-(trifluoromethyl)-1H-pyrazol-4-yl)benzamide], in experiment [1] (Homo sapiens, MV4-11, 168 h), the GI50 worked out at 190 nM. Further, the Ki in experiment [2] (setting [3]) was less than 0.1 nM.
For `CCn1cc(-c2cc(Cn3ccn(C4CC4)c3=N)cc(C(=O)N[C@H](c3ccc(F)c(C)c3)C3CC3)c2)c(C(F)(F)F)n1` [Example 160, (S)—N-(Cyclopropyl(4-fluoro-3-methylphenyl)methyl)-3-((3-cyclopropyl-2-imino-2,3-dihydro-1H-imidazol-1-yl)methyl)-5-(1-ethyl-3-(trifluoromethyl)-1H-pyrazol-4-yl)benzamide], in that order: less than 100 nM and less than 0.1 nM.
Regarding `CCn1cc(-c2cc(Cn3ccn(C)c3=N)cc(C(=O)N[C@H](c3ccc(Cl)c(Cl)c3)C3CC3)c2)c(C(F)(F)F)n1` [Example 161, (S)—N-(Cyclopropyl(3,4-dichlorophenyl)methyl)-3-(1-ethyl-3-(trifluoromethyl)-1H-pyrazol-4-yl)-5-((2-imino-3-methyl-2,3-dihydro-1H-imidazol-1-yl)methyl)benzamide], the GI50 in experiment [1] (Homo sapiens, MV4-11, 168 h) was less than 100 nM. In experiment [2] (read-out: Ki for Inhibition of WDR5 by TR-FRET assay), the Ki was less than 0.1 nM.
Regarding `CCn1cc(-c2cc(Cn3ccn(C4CC4)c3=N)cc(C(=O)N[C@H](c3ccc(Cl)c(Cl)c3)C3CC3)c2)c(C(F)(F)F)n1` [Example 162, (S)—N-(Cyclopropyl(3,4-dichlorophenyl)methyl)-3-((3-cyclopropyl-2-imino-2,3-dihydro-1H-imidazol-1-yl)methyl)-5-(1-ethyl-3-(trifluoromethyl)-1H-pyrazol-4-yl)benzamide], the GI50 in experiment [1] (Homo sapiens, MV4-11, 168 h) is 130 nM. Moreover, in experiment [2] (setting [3]), the Ki was less than 0.1 nM.
For `Cc1cc([C@@H](NC(=O)c2cc(Cn3ccn(C)c3=N)cc(C3CCC3)c2)C2CC2)ccc1F` [Example 166, (S)-3-Cyclobutyl-N-(cyclopropyl(4-fluoro-3-methylphenyl)methyl)-5-((2-imino-3-methyl-2,3-dihydro-1H-imidazol-1-yl)methyl)benzamide], in that order: 360 nM and less than 0.1 nM.
As for `Cc1cc([C@H](C)NC(=O)c2cc(Cn3ccn(C)c3=N)cc(-c3ccc(F)cc3C(F)(F)F)c2F)ccc1F` [Example 172, (S)-2,4′-Difluoro-N-(1-(4-fluoro-3-methylphenyl)ethyl)-5-((2-imino-3-methyl-2,3-dihydro-1H-imidazol-1-yl)methyl)-2′-(trifluoromethyl)-[1,1′-biphenyl]-3-carboxamide], the GI50 in experiment [1] (Homo sapiens, MV4-11, 168 h) stood at 160 nM. In experiment [2], this compound registered a Ki of less than 0.1 nM.
As to `Cc1cc([C@@H](NC(=O)c2cc(Cn3ccn(C)c3=N)cc(-c3ccc(F)cc3Cl)c2)C2CC2)ncc1F` [Example 174, (S)-2′-Chloro-N-(cyclopropyl(5-fluoro-4-methylpyridin-2-yl)methyl)-4′-fluoro-5-((2-imino-3-methyl-2,3-dihydro-1H-imidazol-1-yl)methyl)-[1,1′-biphenyl]-3-carboxamide], in experiment [1] (Homo sapiens, MV4-11, 168 h), the GI50 was less than 100 nM. Besides, in experiment [2] (setting [3]), the Ki was less than 0.1 nM.
For the compound `Cc1cc([C@@H](NC(=O)c2cc(Cn3ccn(C)c3=N)cc(OC(F)(F)F)c2)C2CC2)ccc1F` [Example 179, (S)—N-(Cyclopropyl(4=fluoro-3-methylphenyl)methyl)-3-((2-imino-3-methyl-2,3-dihydro-1H-imidazol-1-yl)methyl)-5-(trifluoromethoxy)benzamide], the GI50 in experiment [1] (Homo sapiens, MV4-11, 168 h) stood at 230 nM. The Ki in experiment [2] (setting [3]) was less than 0.1 nM.
Taken in the same sequence, the figures for `Cc1cc([C@@H](NC(=O)c2cc(Cn3ccn(C)c3=N)cc(-c3ccc(F)cc3C#N)c2)C2CC2)ccc1F` [Example 185, (S)-2′-Cyano-N-(cyclopropyl(4-fluoro-3-methylphenyl)methyl)-4′-fluoro-5-((2-imino-3-methyl-2,3-dihydro-1H-imidazol-1-yl)methyl)-[1,1′-biphenyl]-3-carboxamide] were 610 nM and less than 0.1 nM.
Taken in the same sequence, the figures for `Cn1ccn(Cc2cc(C(=O)NC3(c4cccc(Br)c4)CCC3)c(F)c(-c3ccc(F)cc3C(F)(F)F)c2)c1=N` [Example 186, N-(1-(3-Bromophenyl)cyclobutyl)-2,4′-difluoro-5-((2-imino-3-methyl-2,3-dihydro-1H-imidazol-1-yl)methyl)-2′-(trifluoromethyl)-[1,1′-biphenyl]-3-carboxamide] were 580 nM and less than 0.1 nM.
For `Cn1ccn(Cc2cc(C(=O)N[C@H](c3ccc(Cl)c(Cl)c3)C3CC3)cc(-c3ncc(F)cc3C(F)(F)F)c2)c1=N` [Example 187], in that order: 440 nM and less than 0.1 nM.
Turning to `Cc1cc([C@@H](NC(=O)c2cc(Cn3ccn(C)c3=N)cc(-c3ccc(F)cc3C(F)(F)F)c2)C2CC2)ccc1F` [Example 188, (S)—N-(Cyclopropyl(4-fluoro-3-methylphenyl)methyl)-4′-fluoro-5-((2-imino-3-methyl-2,3-dihydro-1H-imidazol-1-yl)methyl)-2′-(trifluoromethyl)-[1,1′-biphenyl]3-carboxamide], in experiment [1] (Homo sapiens, MV4-11, 168 h), the GI50 is less than 100 nM. The compound further gave a Ki in experiment [2] of less than 0.1 nM.
In the case of `Cn1ccn(Cc2cc(C(=O)N[C@H](c3ccc(F)c(F)c3)C3CC3)cc(-c3cccnc3C(F)(F)F)c2)c1=N` [Example 189, (S)—N-(Cyclopropyl(3,4-difluorophenyl)methyl)-3-((2-imino-3-methyl-2,3-dihydro-1H-imidazol-1-yl)methyl)-5-(2-(trifluoromethyl)pyridin-3-yl)benzamide], the GI50 in experiment [1] (Homo sapiens, MV4-11, 168 h) amounted to 120 nM. In experiment [2] (setting [3]), the Ki is less than 0.1 nM.
Consider `CCn1cc(-c2cc(Cn3ccn(C4CC4)c3=N)cc(C(=O)N[C@H](c3ccc(F)c(F)c3)C3CC3)c2)c(C(F)(F)F)n1` [Example 190, (S)—N-(Cyclopropyl(3,4-difluorophenyl)methyl)-3-((3-cyclopropyl-2-imino-2,3-dihydro-1H-imidazol-1-yl)methyl)-5-(1-ethyl-3-(trifluoromethyl)-1H-pyrazol-4-yl)benzamide], for which, in experiment [1] (Homo sapiens, MV4-11, 168 h), the GI50 was found to be 190 nM. The Ki in experiment [2] (setting [3]) came to 0.11 nM.
Taken in the same sequence, the figures for `CCn1cc(-c2cc(Cn3ccn(C)c3=N)cc(C(=O)N[C@H](c3ccc(F)c(F)c3)C3CC3)c2)c(C(F)(F)F)n1` [Example 191] were 80 nM and less than 0.1 nM.
For `C=C(c1cc(Cn2ccn(C)c2=N)cc(C(=O)N[C@H](c2ccc(F)c(C)c2)C2CC2)c1)C(F)(F)F` [Example 192, (S)—N-(cyclopropyl(4-fluoro-3-methylphenyl)methyl)-3-((2-imino-3-methyl-2,3-dihydro-1H-imidazol-1-yl)methyl)-5-(3,3,3-trifluoroprop-1-en-2-yl)benzamide], in that order: 500 nM and less than 0.1 nM.
Taken in the same sequence, the figures for `Cc1cc([C@@H](NC(=O)c2cc(Cn3ccn(C)c3=N)cc(-c3cn(C(C)C)nc3C(F)(F)F)c2)C2CC2)ccc1F` [Example 193, (S)—N-(Cyclopropyl(4-fluoro-3-methylphenyl)methyl)-3-((2-imino-3-methyl-2,3-dihydro-1H-imidazol-1-yl)methyl)-5-(1-isopropyl-3-(trifluoromethyl)-1H-pyrazol-4-yl)benzamide] were less than 100 nM and less than 0.1 nM.
